Columns and labels:
[1] = ambient temperatures; cited from earlier work
Pioneer brand 34RO7 corn = experiment: Greenhouse evaluation study on use of ZDC as zinc fertilizer on corn; assay type: in vivo; details: for Dry Matter: corn harvested at 5-6 leaf stage, low-Zn Wymore silt loam soil; for Uptake P / Uptake Zn: calculated as dry matter times concentration; for Plant concentration P / Plant concentration Zn: dry plant material, ICP
Procedure: A greenhouse study was conducted to evaluate ZDC.
The soil source was a surface soil from a severely eroded Wymore silt loam soil (fine, smectitic, mesic Aquertic Argiudolls). Zinc deficiency symptoms on corn had been observed on the site during the 1999 growing season.
The soil was air-dried and sieved through a 1 cm coarse sieve. Five and one-half inch top diameter, plastic-lined pots were used. For each pot, 1600 g of soil was weighed into a plastic bag, and 1 g of monoammonium phosphate (11-52-0) was added to the plastic bags as a nitrogen and phosphorous source to ensure adequate growth. The MPA/soil was thoroughly mixed. About ⅔ of the soil from the thoroughly mixed MAP/soil was added to the plastic-lined pot, with roughly 2 inches of soil remaining to be added to the pot after starter fertilizer application and seed planting. A small furrow was made across the pot and a MAP/zinc starter mix added. An inch of soil was added and 4 seeds of Pioneer brand 34RO7 corn was planted directly over the fertilizer band, and the rest of the soil was added to the pot to cover the seed to one inch deep. Planting was on March 24. The fertilizer rate was calculated as a starter band rate based on the linear feet in an acre planted in 30 inch rows. A 5″ length of row was used in the calculations. […] Six replications were used. Pots were watered from the surface using distilled water. All pots received a blanket application of (NH4)2SO4 at the rate of 50#N/acre at the initial watering and twice more during the duration of the study.
Pots were thinned to three plants per pot approximately 1 week after emergence. Plants were harvested April 28 for dry matter yield by clipping about one-half inch above the soil surface. Samples were oven-dried at 65° C. for 48 hours and weighed.
The dry plant material was ground through a stainless steel small plant grinder to pass a 2 mm sieve. A quarter gram was weighed, wet-ashed with nitric-perchloric acid, and P and Zn concentration determined using an inductive couple plasma (ICP) instrument. Zinc and P uptake were calculated as dry matter times concentration.

[2] = Hydroscopicity check: granulated material stored overnight in the open; assay type: physicochemical; details: for Hydroscopicity of granulated material (in words): material melt-granulated at about 340-360° F.; for % Gain (weight, stored in the open): 24 hrs
Procedure: A sample of the material granulated in the previous run at about 350° F. was screened, and the material falling into a −8 mesh class was stored overnight in the open to check for hydroscopicity.

Row | SMILES | Zinc content of solution (solubility) [1] | Plant height, visual (10# Zn vs 1# Zn) (Pioneer brand 34RO7 corn; 10# Zn as ZDC compared with 1# Zn as ZDC, from shortly after emergence throughout the study) | Dry Matter (Pioneer brand 34RO7 corn; Zn rate 1 lb/ac as starter band) | Uptake P (Pioneer brand 34RO7 corn; Zn rate 1 lb/ac) | Uptake Zn (Pioneer brand 34RO7 corn; Zn rate 1 lb/ac) | Plant concentration P (Pioneer brand 34RO7 corn; Zn rate 1 lb/ac) | Plant concentration Zn (Pioneer brand 34RO7 corn; Zn rate 1 lb/ac) | Dry Matter (Pioneer brand 34RO7 corn; Zn rate 10 lb/ac as starter band) | Uptake P (Pioneer brand 34RO7 corn; Zn rate 10 lb/ac) | Uptake Zn (Pioneer brand 34RO7 corn; Zn rate 10 lb/ac) | Plant concentration P (Pioneer brand 34RO7 corn; Zn rate 10 lb/ac) | Plant concentration Zn (Pioneer brand 34RO7 corn; Zn rate 10 lb/ac) | Hydroscopicity of granulated material (in words) [2] | Hydroscopicity of granulated material (in words) ([2]; listed as Zn(NH3)2Cl2) | % Gain (weight, stored in the open) ([2]; −4+6 mesh granulated material) | Weight gained at 24 hrs. ([2]; −4+6 mesh granulated material, starting Wt. 5.0774) | % Gain (weight, stored in the open) ([2]; −8 mesh granulated material) | Weight gained at 24 hrs. ([2]; −8 mesh granulated material, starting Wt. 5.5600)
1 | [Cl-].[Cl-].[Zn+2] [zinc chloride] | 30 % zinc | – | – | – | – | – | – | – | – | – | – | – | – | – | – | – | – | –
2 | N.N.[Cl][Zn][Cl] [ZDC, Zinc diammine chloride] | – | slightly shorter | 7.88 g/pot | 28.4 mg/pot | .21 μg/pot | .36% | 27 ppm | 7.44 g/pot | 24.6 mg/pot | .35 μg/pot | .33% | 47 ppm | very low hydroscopicity | did not appear to be hydroscopic | 0.18% | 0.0091 | 0.37% | 0.0206

Source: patent US6454828B1 (Nulex, Inc., priority 2000, dated 2002)
